In the supplement of paper PMC10307832:

Legend:
Assay in all cases: relative viability (nuclei count vs DMSO), 5 days (fraction); higher = more cells survive
Alisertib + Trametinib = compound: COc1cc(Nc2ncc3c(n2)-c2ccc(Cl)cc2C(c2c(F)cccc2OC)=NC3)ccc1C(=O)O [Alisertib] + CC(=O)Nc1cccc(-n2c(=O)n(C3CC3)c(=O)c3c(Nc4ccc(I)cc4F)n(C)c(=O)c(C)c32)c1 [Trametinib] (partner 0.02 µM)
Summary of the method: (§1)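 Lung cancer cell lines were seeded in 1536-well plates and dosed by pin tool the next day, with either a single drug or a fixed anchor-drug dose combined with five library-drug doses (not always all listed) spaced in √10 steps. Five days later, one step fixed the cells and stained their nuclei (final 0.05% Triton X-100, 1% formaldehyde, 1 ug/ml Hoechst), and nuclei were counted on 4× images. Relative viability is the nuclei count in treated wells divided by the count in vehicle wells, and each value is the median of duplicate plates.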

Alisertib + OSI-027 = compound: COc1cc(Nc2ncc3c(n2)-c2ccc(Cl)cc2C(c2c(F)cccc2OC)=NC3)ccc1C(=O)O [Alisertib] + COc1cccc2cc(-c3nc([C@H]4CC[C@H](C(=O)O)CC4)n4ncnc(N)c34)[nH]c12 [OSI-027] (partner 0.5 µM)
Summary of the method: as §1

Alisertib + Lapatinib = compound: COc1cc(Nc2ncc3c(n2)-c2ccc(Cl)cc2C(c2c(F)cccc2OC)=NC3)ccc1C(=O)O [Alisertib] + CS(=O)(=O)CCNCc1ccc(-c2ccc3ncnc(Nc4ccc(OCc5cccc(F)c5)c(Cl)c4)c3c2)o1 [Lapatinib] (partner 2 µM)
Summary of the method: as §1

Alisertib + Linsitinib = compound: COc1cc(Nc2ncc3c(n2)-c2ccc(Cl)cc2C(c2c(F)cccc2OC)=NC3)ccc1C(=O)O [Alisertib] + C[C@]1(O)C[C@@H](c2nc(-c3ccc4ccc(-c5ccccc5)nc4c3)c3c(N)nccn32)C1 [Linsitinib] (partner 1 µM)
Summary of the method: as §1

Row | Cell Line | relative viability (Alisertib + Trametinib; first compound 0.005 µM) | relative viability (Alisertib + Trametinib; first compound 0.01581 µM) | relative viability (Alisertib + Trametinib; first compound 0.05 µM) | relative viability (Alisertib + Trametinib; first compound 0.1581 µM) | relative viability (Alisertib + Trametinib; first compound 0.5 µM) | relative viability (Alisertib + OSI-027; first compound 0.005 µM) | relative viability (Alisertib + OSI-027; first compound 0.01581 µM) | relative viability (Alisertib + OSI-027; first compound 0.05 µM) | relative viability (Alisertib + OSI-027; first compound 0.1581 µM) | relative viability (Alisertib + OSI-027; first compound 0.5 µM) | relative viability (Alisertib + Lapatinib; first compound 0.005 µM) | relative viability (Alisertib + Lapatinib; first compound 0.01581 µM) | relative viability (Alisertib + Lapatinib; first compound 0.05 µM) | relative viability (Alisertib + Lapatinib; first compound 0.1581 µM) | relative viability (Alisertib + Lapatinib; first compound 0.5 µM) | relative viability (Alisertib + Linsitinib; first compound 0.005 µM) | relative viability (Alisertib + Linsitinib; first compound 0.01581 µM) | relative viability (Alisertib + Linsitinib; first compound 0.05 µM) | relative viability (Alisertib + Linsitinib; first compound 0.1581 µM) | relative viability (Alisertib + Linsitinib; first compound 0.5 µM)
1 | HCC-78 | 0.67 | 0.646 | 0.263 | 0.236 | 0.259 | 0.536 | 0.354 | 0.244 | 0.244 | 0.241 | 0.743 | 0.783 | 0.428 | 0.205 | 0.19 | 0.412 | 0.418 | 0.183 | 0.15 | 0.187
2 | HCC-366 | 0.306 | 0.23 | 0.0254 | 0.0345 | 0.0398 | 0.973 | 0.696 | 0.0686 | 0.04 | 0.0334 | 1.02 | 0.31 | 0.0171 | 0.0127 | 0.0262 | 0.688 | 0.611 | 0.043 | 0.0079 | 0.0142
3 | HCC-827 | 0.547 | 0.514 | 0.293 | 0.26 | 0.238 | 0.722 | 0.755 | 0.685 | 0.257 | 0.18 | 0.183 | 0.228 | 0.191 | 0.16 | 0.101 | 0.908 | 0.928 | 0.543 | 0.434 | 0.316
4 | HOP-62 | 0.398 | 0.337 | 0.274 | 0.223 | 0.174 | 0.683 | 0.727 | 0.537 | 0.243 | 0.176 | 0.838 | 0.803 | 0.883 | 0.223 | 0.146 | 0.551 | 0.853 | 0.305 | 0.203 | 0.155
5 | IA-LM | – | – | – | – | – | – | – | – | – | – | 0.853 | 0.91 | 0.309 | 0.212 | 0.184 | 0.478 | 0.659 | 0.324 | 0.223 | 0.0931
6 | LC-2-ad | 0.826 | 0.698 | 0.517 | 0.353 | 0.191 | 0.587 | 0.368 | 0.441 | 0.307 | 0.268 | 0.681 | 0.465 | 0.244 | 0.152 | 0.118 | 0.643 | 0.399 | 0.187 | 0.135 | 0.121
7 | LCLC-97TM1 | 0.202 | 0.201 | 0.124 | 0.126 | 0.0987 | 0.424 | 0.349 | 0.264 | 0.129 | 0.0853 | 0.405 | 0.723 | 0.623 | 0.262 | 0.126 | 0.197 | 0.185 | 0.135 | 0.114 | 0.0896
8 | LCLC-103H | 0.669 | 0.69 | 0.345 | 0.359 | 0.437 | 0.427 | 0.438 | 0.473 | 0.201 | 0.204 | – | – | – | – | – | 1.05 | 1.03 | 1.03 | 0.235 | 0.297
9 | LK-2 | 0.746 | 0.677 | 0.522 | 0.25 | 0.183 | 0.224 | 0.232 | 0.185 | 0.166 | 0.17 | 0.842 | 0.87 | 0.49 | 0.344 | 0.242 | 0.519 | 0.454 | 0.337 | 0.206 | 0.175
10 | LOU-NH91 | 0.783 | 0.751 | 0.663 | 0.513 | 0.425 | 0.682 | 0.719 | 0.674 | 0.389 | 0.324 | 0.773 | 0.784 | 0.731 | 0.484 | 0.361 | 0.977 | 0.941 | 0.818 | 0.491 | 0.403
11 | LU99A | 0.507 | 0.473 | 0.181 | 0.212 | 0.195 | 0.301 | 0.324 | 0.259 | 0.204 | 0.164 | 0.855 | 0.852 | 0.651 | 0.214 | 0.186 | 0.532 | 0.511 | 0.193 | 0.177 | 0.168
12 | NCI-H441 | 0.378 | 0.341 | 0.16 | 0.168 | 0.141 | 0.532 | 0.446 | 0.222 | 0.22 | 0.215 | – | – | – | – | – | 0.504 | 0.333 | 0.243 | 0.129 | 0.129
13 | NCI-H522 | 0.779 | 0.777 | 0.728 | 0.551 | 0.445 | 0.684 | 0.618 | 0.69 | 0.532 | 0.433 | – | – | – | – | – | – | – | – | – | –
14 | NCI-H1299 | – | – | – | – | – | – | – | – | – | – | 0.939 | 0.904 | 0.586 | 0.452 | 0.295 | 0.936 | 0.932 | 0.71 | 0.271 | 0.189
15 | NCI-H1563 | – | – | – | – | – | 0.742 | 0.768 | 0.684 | 0.695 | 0.54 | 1.02 | 0.654 | 0.85 | 0.892 | 0.598 | 1.04 | 1.01 | 1.01 | 0.935 | 0.744
16 | NCI-H1648 | – | 0.42 | 0.27 | 0.229 | 0.25 | 0.258 | 0.242 | 0.23 | 0.252 | 0.239 | – | – | – | – | – | – | – | – | – | –
17 | NCI-H1650 | 0.558 | 0.565 | 0.295 | 0.145 | 0.191 | 0.565 | 0.501 | 0.278 | 0.108 | 0.166 | 0.768 | 0.222 | 0.203 | 0.175 | 0.228 | – | – | – | – | –
18 | NCI-H1703 | – | – | – | – | – | – | – | – | – | – | 1.11 | 0.721 | 0.217 | 0.262 | 0.137 | 0.65 | 0.626 | 0.563 | 0.177 | 0.164
19 | NCI-H2170 | 0.871 | 0.842 | 0.401 | 0.407 | 0.17 | 0.721 | 0.629 | 0.644 | 0.323 | 0.201 | 0.268 | 0.25 | 0.275 | 0.221 | 0.187 | – | – | – | – | –
20 | NCI-H2342 | 0.758 | 0.809 | 0.483 | 0.481 | 0.443 | 0.529 | 0.643 | 0.589 | 0.468 | 0.383 | – | – | – | – | – | – | – | – | – | –
